Literature values in article PMC6138493 (British Journal of Clinical Pharmacology, 2018).

Details: after intravenous administration; ref Onasch et al. 24

NCCc1ccc(O)c(O)c1 [DA, dopamine]
Elimination half‐life of DA in plasma: a few minutes
